Consider three compounds from paper PMC11845477, “Exploring the principles behind antibiotics with limited resistance” (Nature Communications, 2025).

The subject of the assay is A. baumannii ATCC 17978 (SEN) and A. baumannii ATCC BAA-1605 (MDR). The experiment in a line: Adaptive laboratory evolution (ALE), relative MIC of evolved lines. The class given is cell-based, Acinetobacter baumannii. A digest of the protocol: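 Ten parallel populations per antibiotic–ancestor pair were evolved in MHB at 37 °C, starting near 50% growth-inhibiting drug. Every 72 h they were passaged into 0.5–2.5× increasing concentrations, keeping the highest-drug well with OD600 > 0.2.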

Where [1] appears, read: AB-SEN (A. baumannii ATCC 17978), evolved line 1 of the given antibiotic.
The mark [2] stands for this setting: AB-SEN (A. baumannii ATCC 17978), evolved line 2 of the given antibiotic.
The mark [3] stands for this setting: AB-SEN (A. baumannii ATCC 17978), evolved line 3 of the given antibiotic.
Where [4] appears, read: AB-SEN (A. baumannii ATCC 17978), evolved line 4 of the given antibiotic.
The mark [5] stands for this setting: AB-SEN (A. baumannii ATCC 17978), evolved line 5 of the given antibiotic.
The mark [6] stands for this setting: AB-SEN (A. baumannii ATCC 17978), evolved line 6 of the given antibiotic.
Setting [7] is: AB-SEN (A. baumannii ATCC 17978), evolved line 8 of the given antibiotic.
The mark [8] stands for this setting: AB-SEN (A. baumannii ATCC 17978), evolved line 9 of the given antibiotic.

`C[C@@H](O)[C@H]1C(=O)N2C(C(=O)O)=C(S[C@H]3CC[S@@+]([O-])C3)S[C@H]12` [Sulopenem]: the MIC of evolved line came to 8 µg/mL under setting [1]; 1 µg/mL under setting [2]; 16 µg/mL under setting [3]; 16 µg/mL under setting [4]; 64 µg/mL under setting [5]; 16 µg/mL under setting [6]. For the same compound, the MIC of evolved line (AB-SEN (A. baumannii ATCC 17978), evolved line 7 of the given antibiotic) came out at 16 µg/mL; the MIC of evolved line under setting [7] is 8 µg/mL; the MIC of evolved line under setting [8] was 16 µg/mL. Moreover, the “Relative MIC” value amounted to 8 (AB-SEN (A. baumannii ATCC 17978), evolved line 1 vs ancestor); 1 (AB-SEN (A. baumannii ATCC 17978), evolved line 2 vs ancestor); 16 (AB-SEN (A. baumannii ATCC 17978), evolved line 3 vs ancestor); 16 (AB-SEN (A. baumannii ATCC 17978), evolved line 4 vs ancestor); 64 (AB-SEN (A. baumannii ATCC 17978), evolved line 5 vs ancestor); 16 (AB-SEN (A. baumannii ATCC 17978), evolved line 6 vs ancestor). Further, the “Relative MIC” value amounted to 16 (AB-SEN (A. baumannii ATCC 17978), evolved line 7 vs ancestor); 8 (AB-SEN (A. baumannii ATCC 17978), evolved line 8 vs ancestor); 16 (AB-SEN (A. baumannii ATCC 17978), evolved line 9 vs ancestor); 8 (Acinetobacter baumannii ATCC 17978 (AB-SEN), evolved line 1); 1 (Acinetobacter baumannii ATCC 17978 (AB-SEN), evolved line 2); 16 (Acinetobacter baumannii ATCC 17978 (AB-SEN), evolved line 3). Further, the “Relative MIC” value (Acinetobacter baumannii ATCC 17978 (AB-SEN), evolved line 4) is given as 16; the “Relative MIC” value (Acinetobacter baumannii ATCC 17978 (AB-SEN), evolved line 5) is 64; the “Relative MIC” value (Acinetobacter baumannii ATCC 17978 (AB-SEN), evolved line 6) amounted to 16; the “Relative MIC” value (Acinetobacter baumannii ATCC 17978 (AB-SEN), evolved line 7) is reported as 16; the “Relative MIC” value (Acinetobacter baumannii ATCC 17978 (AB-SEN), evolved line 8) came to 8; the “Relative MIC” value (Acinetobacter baumannii ATCC 17978 (AB-SEN), evolved line 9) stood at 16. For the same compound, the “Relative MIC (log10)” value is, setting by setting: (AB-SEN (Acinetobacter baumannii ATCC 17978), evolved line 1) 0.9031 log10; (AB-SEN (Acinetobacter baumannii ATCC 17978), evolved line 3) 1.204 log10; (AB-SEN (Acinetobacter baumannii ATCC 17978), evolved line 5) 1.806 log10; (AB-SEN (Acinetobacter baumannii ATCC 17978), evolved line 9) 1.204 log10; (AB-SEN, Acinetobacter baumannii ATCC 17978, evolved line 7) 1.204 log10.

Turning to POL7306, the “Relative MIC” value is, setting by setting: (ALE, Acinetobacter baumannii ATCC 17978 (AB-SEN), evolved line 1) 256; (ALE, Acinetobacter baumannii ATCC 17978 (AB-SEN), evolved line 2) 32; (ALE, Acinetobacter baumannii ATCC 17978 (AB-SEN), evolved line 3) 16; (ALE, Acinetobacter baumannii ATCC 17978 (AB-SEN), evolved line 4) 2; (ALE, Acinetobacter baumannii ATCC 17978 (AB-SEN), evolved line 6) 32; (ALE, Acinetobacter baumannii ATCC 17978 (AB-SEN), evolved line 7) 2. The “Relative MIC” value (ALE, Acinetobacter baumannii ATCC 17978 (AB-SEN), evolved line 8) turned out to be 2; the “Relative MIC” value (ALE, Acinetobacter baumannii ATCC 17978 (AB-SEN), evolved line 9) came out at 256; the “Relative MIC” value (ALE, Acinetobacter baumannii ATCC 17978 (AB-SEN), evolved line 10) was determined as 32; the “Relative MIC” value (ALE, Acinetobacter baumannii ATCC BAA 1605 (AB-MDR), evolved line 1) came out at 2; the “Relative MIC” value (ALE, Acinetobacter baumannii ATCC BAA 1605 (AB-MDR), evolved line 2) stood at 16; the “Relative MIC” value (ALE, Acinetobacter baumannii ATCC BAA 1605 (AB-MDR), evolved line 3) came to 16. Also, the “Relative MIC” value came to 16 (ALE, Acinetobacter baumannii ATCC BAA 1605 (AB-MDR), evolved line 4); 16 (ALE, Acinetobacter baumannii ATCC BAA 1605 (AB-MDR), evolved line 5); 2 (ALE, Acinetobacter baumannii ATCC BAA 1605 (AB-MDR), evolved line 6); 16 (ALE, Acinetobacter baumannii ATCC BAA 1605 (AB-MDR), evolved line 7); 8 (ALE, Acinetobacter baumannii ATCC BAA 1605 (AB-MDR), evolved line 8); 32 (ALE, Acinetobacter baumannii ATCC BAA 1605 (AB-MDR), evolved line 9). Further, the “Relative MIC” value (ALE, Acinetobacter baumannii ATCC BAA 1605 (AB-MDR), evolved line 10) amounted to 16.

Turning to polymyxin-B, the MIC of evolved line was found to be 512 µg/mL (AB-MDR ATCC BAA 1605, evolved line 1); 512 µg/mL (AB-MDR ATCC BAA 1605, evolved line 2); 256 µg/mL (AB-MDR ATCC BAA 1605, evolved line 3); 1020 µg/mL (AB-MDR ATCC BAA 1605, evolved line 4); 1020 µg/mL (AB-MDR ATCC BAA 1605, evolved line 5); 1020 µg/mL (AB-MDR ATCC BAA 1605, evolved line 6). The MIC of evolved line was 1020 µg/mL (AB-MDR ATCC BAA 1605, evolved line 7); 1020 µg/mL (AB-MDR ATCC BAA 1605, evolved line 8); 1020 µg/mL (AB-MDR ATCC BAA 1605, evolved line 9); 1020 µg/mL (AB-MDR ATCC BAA 1605, evolved line 10); 512 µg/mL under setting [1]; 512 µg/mL under setting [2]. For the same compound, the MIC of evolved line is, setting by setting: under setting [3], 256 µg/mL; under setting [4], 512 µg/mL; under setting [5], 512 µg/mL; under setting [6], 512 µg/mL; under setting [7], 256 µg/mL; under setting [8], 256 µg/mL.
